# Assay results taken from patent publication US7148232B2, “Oxazolo, thiazolo and selenazolo [4,5-c]-quinolin-4-amines and analogs thereof” (3M Innovative Properties Company, priority 1998, dated 2006).
# Values joined by “and” are separate entries in the source; they are usually repeats but may differ in a detail not shown here. Equal values may be shown once.
# Legend:
# [1] = system: interferon (α); test: Interferon (α) induction in human cells (in vitro human blood cell system, interferon by bioassay); format: cell-based; conditions: human PBM's, 48 hours
# Procedure: An in vitro human blood cell system was used to assess interferon induction by compounds of the invention. Activity is based on the measurement of interferon secreted into culture media. Interferon is measured by bioassay.
# Whole blood is collected by venipuncture into EDTA vacutainer tubes. Peripheral blood mononuclear cells (PBM's) are separated from whole blood by using either LeucoPREP™ Brand Cell Separation Tubes (available from Becton Dickinson) or Ficoll-Paque® solution (available from Pharmacia LKB Biotechnology Inc, Piscataway, N.J.). […] 200 μL portions of PBM suspension are added to 96 well (flat bottom) sterile tissue culture plates (Becton Dickinson Labware, Lincoln Park, N.J.).
# The compounds are solubilized in ethanol, dimethyl sulfoxide or tissue culture water then diluted with tissue culture water, 0.01N sodium hydroxide or 0.01N hydrochloric acid (The choice of solvent will depend on the chemical characteristics of the compound being tested.). Ethanol or DMSO concentration should not exceed a final concentration of 1% for addition to the culture wells. Compounds are initially tested in a concentration range of from about 0.1 μg/mL to about 5 μg/mL. Compounds which show induction at a concentration of 0.5 μg/mL are then tested in a wider concentration range.
# The solution of test compound is added in a volume (less than or equal to 50 μL) to the wells containing 200 μL of diluted whole blood or of PBM's in media. Solvent and/or media is added to control wells (wells with no test compound) and as needed to adjust the final volume of each well to 250 μL. The plates are covered with plastic lids, vortexed gently and then incubated for 48 hours at 37° C. with a 5% carbon dioxide atmosphere.
# Following incubation, the plates are covered with parafilm and then centrifuged at 1000 rpm for 10 to 15 minutes at 4° C. in a Damon IEC Model CRU-5000 centrifuge. Media (about 200 μL) is removed from 4 to 8 wells and pooled into 2 mL sterile freezing vials. Samples are maintained at −70° C. until analysis.
# Interferon is determined by bioassay using A549 human lung carcinoma cells challenged with encephalomyocarditis. The details of the bioassay method have been described by G. L. Brennan and L. H. Kronenberg in “Automated Bioassay of Interferons in Micro-test Plates”, Biotechniques, June/Jul. […] The incubated cells are infected with an inoculum of encephalomyocarditis virus. The infected cells are incubated for an additional period at 37° C. before quantifying for viral cytopathic effect. The viral cytopathic effect is quantified by staining followed by spectrophotometric absorbance measurements. Results are expressed as alpha reference units/mL based on the value obtained for NIH HU IF-L standard.
# Compounds of the invention were tested for their ability to induce interferon in human cells using the test method described above.
melting point,SMILES,Interferon (α) Induction in Human Cells ([1]; Dose Concentration 0.01 μg/mL),Interferon (α) Induction in Human Cells ([1]; Dose Concentration 0.05 μg/mL),Interferon (α) Induction in Human Cells ([1]; Dose Concentration 0.10 μg/mL),Interferon (α) Induction in Human Cells ([1]; Dose Concentration 0.50 μg/mL),Interferon (α) Induction in Human Cells ([1]; Dose Concentration 1.0 μg/mL),Interferon (α) Induction in Human Cells ([1]; Dose Concentration 5.0 μg/mL),Interferon (α) Induction in Human Cells ([1]; Dose Concentration 10.0 μg/mL),Interferon (α) Induction in Human Cells ([1]; Dose Concentration 25.0 μg/mL),Interferon (α) Induction in Human Cells ([1]; Dose Concentration 50.0 μg/mL)
184 to 187 °C and 184 to 186 °C,"Cc1nc2c(N)nc3ccccc3c2s1 [Example 2, 2-Methylthiazolo[4,5-c]quinolin-4-amine]",−,−,±,+,+,+,,,
323 to 325 °C,"Cc1nc2c(N)nc3ccccc3c2s1.Cl [Example 4, 2-Methylthiazolo[4,5-c]quinolin-4-amine Hydrochloride]",−,−,−,+,+,+,,,
170 to 172 °C and 169 to 171 °C,"CCc1nc2c(N)nc3ccccc3c2s1 [Example 8, 2-Ethylthiazolo[4,5-c]quinolin-4-amine]",−,−,−,+,+,+,,,
119 to 121 °C,"CCCCCc1nc2c(N)nc3ccccc3c2s1 [Example 16, 2-Pentylthiazolo[4,5-c]quinolin-4-amine]",−,−,−,−,+,+,,,
239 to 241 °C,"Nc1nc2ccccc2c2sc(/C=C/c3ccccc3)nc12 [Example 22, 2-(2-Phenyl-1-ethenyl)thiazolo[4,5-c]quinolin-4-amine]",−,−,−,−,−,−,+,+,+
149 to 151 °C,"CCOCc1nc2c(N)nc3ccccc3c2s1 [Example 28, 2-(Ethoxymethyl)thiazolo[4,5-c]quinoline-4-amine]",−,−,−,+,+,+,,,
183 to 185 °C,"COCc1nc2c(N)nc3ccccc3c2s1 [Example 30, 2-(Methoxymethyl)thiazolo[4,5-c]quinolin-4-amine]",−,−,−,−,+,+,,,
123 to 125 °C,"CC(C)Cc1nc2c(N)nc3ccccc3c2s1 [Example 32, 2-(2-Methylpropyl)thiazolo[4,5-c]quinolin-4-amine]",−,−,±,+,+,+,,,
147 to 149 °C,"CCCc1nc2c(N)nc3ccc(C)cc3c2s1 [Example 36, 8-Methyl-2-propylthiazolo[4,5-c]quinolin-4-amine]",−,−,−,−,+,+,,,
247 to 249 °C,"Nc1nc2ccccc2c2sc(CO)nc12 [Example 37, (4-Aminothiazolo[4,5-c]quinolin-2-yl)-methanol]",−,−,−,−,−,−,,,
195 to 197 °C,"Cc1nc2c(N)nc3ccccc3c2o1 [Example 38, 2-Methyloxazolo[4,5-c]quinolin-4-amine]",−,−,−,+,+,+,,,
175 to 178 °C,"CCc1nc2c(N)nc3ccccc3c2o1 [Example 39, 2-Ethyloxazolo [4,5-c]quinolin-4-amine]",−,−,+,+,+,+,,,
159 to 160 °C,"CCCc1nc2c(N)nc3ccccc3c2o1 [Example 43, 2-Propyloxazolo[4,5-c]quinolin-4-amine]",−,+,+,+,+,+,,,
177 to 180 °C,"CCCc1nc2c(N)nc3ccc(Br)cc3c2s1 [Example 44, 8-Bromo-2-propylthiazolo[4,5-c]quinolin-4-amine]",,,−,−,−,+,+,+,+
186 to 187 °C,"CCCc1nc2c(N)nc3cc(C)ccc3c2s1 [Example 45, 7-Methyl-2-propylthiazolo[4,5-c]quinolin-4-amine]",−,+,+,+,+,+,,,
187 to 188 °C,"CCCCc1nc2c(N)nc3cc(C)ccc3c2o1 [Example 46, 2-Butyl-7-methyloxazolo[4,5-c]quinolin-4-amine]",−,+,+,+,+,+,,,
188 to 189 °C,"CCCc1nc2c(N)nc3cc(C)ccc3c2o1 [Example 47, 7-Methyl-2-propyloxazolo[4,5-c]quinolin-4-amine]",−,+,+,+,+,+,,,
139 to 142 °C,"CCCc1nc2c[n+]([O-])c3cccnc3c2s1 [Example 59, 2-Propylthiazolo[4,5-c][1,5]naphthyridine-5N-oxide]",,,,,,,,,
137 to 139 °C,"CCCc1nc2c[n+]([O-])ccc2s1 [Example 61, 2-Propylpyrido[3,4-d][1,3]thiazole-5N-oxide]",,,,,,,,,

SMILES,melting point,Interferon (α) Induction in Human Cells ([1]; Dose Concentration 0.01 μg/mL),Interferon (α) Induction in Human Cells ([1]; Dose Concentration 0.05 μg/mL),Interferon (α) Induction in Human Cells ([1]; Dose Concentration 0.10 μg/mL),Interferon (α) Induction in Human Cells ([1]; Dose Concentration 0.50 μg/mL),Interferon (α) Induction in Human Cells ([1]; Dose Concentration 1.0 μg/mL),Interferon (α) Induction in Human Cells ([1]; Dose Concentration 5.0 μg/mL),Interferon (α) Induction in Human Cells ([1]; Dose Concentration 10.0 μg/mL),Interferon (α) Induction in Human Cells ([1]; Dose Concentration 25.0 μg/mL),Interferon (α) Induction in Human Cells ([1]; Dose Concentration 50.0 μg/mL)
"CC(C)(Cc1nc2c(N)nc3ccccc3c2s1)OC(N)=O [Example 26, 2-(4-Aminothiazolo[4,5-c]quinolin-2-yl)-1,1-dimethylethyl Carbamate]",222 to 223 °C,−,−,−,−,−,+,+,+,+
